In article PMC11915375 (ACS Infectious Diseases, 2025):

Assays:
[1] = tested on: Leishmania major amastigotes; test: Leishmania major amastigote assay; assay type: cell-based; settings: Leishmania major, read-out: L. maj EC50
T. brucei = T. brucei proliferation inhibition assay; assay type: cell-based, Trypanosoma brucei; settings: Trypanosoma brucei, read-out: T. brucei EC50 ± S.D.
T. cruzi CA-I/72 = test: T. cruzi in vitro assay, C2C12 host cell; assay type: cell-based, Trypanosoma cruzi; settings: Trypanosoma cruzi, C2C12, read-out: T. cruzi EC50
L. donovani = L. donovani in vitro assay; assay type: cell-based, Leishmania donovani; settings: Leishmania donovani, read-out: L. don EC50, B10R host cell line

| SMILES | EC50 [1] | EC50 (T. brucei) | EC50 (T. cruzi CA-I/72) | EC50 (L. donovani) |
| --- | --- | --- | --- | --- |
| COc1ccc(Nc2cnnc3ccc(-c4ccc(N5CCN(C)CC5)cc4)cc23)cc1 [Compound 23a, N-(4-Methoxyphenyl)-6-(4-(4-methylpiperazin-1-yl)phenyl)cinnolin-4-amine] | 4.7 µM | 0.31 ± 0.18 µM | 1.7 µM | 2.3 µM |
| CN1CCN(c2ccc(-c3ccc4nncc(Nc5ccc(OC(F)(F)F)cc5)c4c3)cc2)CC1 [Compound 24a, 6-(4-(4-Methylpiperazin-1-yl)phenyl)-N-(4-(trifluoromethoxy)phenyl)cinnolin-4-amine] | > 21 µM | 0.41 ± 0.024 µM | 0.87 µM | 0.52 µM |
| COc1cnc(Nc2cnnc3ccc(-c4ccc(N5CCN(C)CC5)cc4)cc23)nc1 [Compound 25a, N-(5-Methoxypyrimidin-2-yl)-6-(4-(4-methylpiperazin-1-yl)phenyl)cinnolin-4-amine] | > 4.7 µM | 1.2 ± 0.38 µM | 6.1 µM | 9.4 µM |
| COc1ccc(Nc2cnnc3ccc(-c4cnc(N5CCN(C)CC5)nc4)cc23)cc1 [Compound 27a, N-(4-Methoxyphenyl)-6-(2-(4-methylpiperazin-1-yl)pyrimidin-5-yl)cinnolin-4-amine] | > 23 µM | 1.3 ± 0.27 µM | 4.4 µM | > 10 µM |
| CN1CCCN(c2ncc(-c3ccc4nncc(Nc5ncc(Cl)cn5)c4c3)cn2)CC1 [Compound 29a, N-(5-Chloropyrimidin-2-yl)-6-(2-(4-methyl-1,4-diazepan-1-yl)pyrimidin-5-yl)cinnolin-4-amine] | > 22 µM | 1.7 ± 0.5 µM | 6.7 µM | 0.22 µM |
| COc1ccc(Nc2cnnc3ccc(-c4cnc(N5CCCN(C)CC5)nc4)cc23)cc1 [Compound 30a, N-(4-Methoxyphenyl)-6-(2-(4-methyl-1,4-diazepan-1-yl)pyrimidin-5-yl)cinnolin-4-amine] | > 23 µM | 2.1 ± 0.64 µM | 5.1 µM | > 10 µM |

Now from value to compound, other results behind:

| EC50 [1] | SMILES | EC50 (T. brucei) | EC50 (T. cruzi CA-I/72) | EC50 (L. donovani) |
| --- | --- | --- | --- | --- |
| > 21 µM | CN1CCN(c2ncc(-c3ccc4nncc(Nc5ccc(OC(F)(F)F)cc5)c4c3)cn2)CC1 [Compound 28a, 6-(2-(4-Methylpiperazin-1-yl)pyrimidin-5-yl)-N-(4-(trifluoromethoxy)phenyl)cinnolin-4-amine] | 1 ± 0.12 µM | 4.2 µM | 1.5 µM |
| > 20 µM | CN1CCCN(c2ncc(-c3ccc4nncc(Nc5ccc(OC(F)(F)F)cc5)c4c3)cn2)CC1 [Compound 31a, 6-(2-(4-Methyl-1,4-diazepan-1-yl)pyrimidin-5-yl)-N-(4-(trifluoromethoxy)phenyl)cinnolin-4-amine] | 0.25 ± 0.11 µM | > 10 µM | > 10 µM |
| > 23 µM | COc1cnc(Nc2cnnc3ccc(-c4cnc(N5CCCN(C)CC5)nc4)cc23)nc1 [Compound 32a, N-(5-Methoxypyrimidin-2-yl)-6-(2-(4-methyl-1,4-diazepan-1-yl)pyrimidin-5-yl)cinnolin-4-amine] | 2.9 ± 0.8 µM | > 10 µM | 8 µM |
| 17 µM | CN1CCCN(S(=O)(=O)c2ccc(-c3ccc4nncc(Nc5ncc(Cl)cn5)c4c3)cc2)CC1 [Compound 33a, N-(5-Chloropyrimidin-2-yl)-6-(4-((4-methyl-1,4-diazepan-1-yl)sulfonyl)phenyl)cinnolin-4-amine] | 0.99 ± 0.29 µM | 5.3 µM | > 10 µM |
| > 18 µM | CN1CCCN(S(=O)(=O)c2ccc(-c3ccc4nncc(Nc5ccc(OC(F)(F)F)cc5)c4c3)cc2)CC1 [Compound 34a, 6-(4-((4-Methyl-1,4-diazepan-1-yl)sulfonyl)phenyl)-N-(4-(trifluoromethoxy)phenyl)cinnolin-4-amine] | 0.65 ± 0.021 µM | > 10 µM | 1.8 µM |
